This is an account of results in US6835382B2, “Ii peptide therapeutics to enhance antigen presentation” (University of Massachusetts, priority 1996, dated 2004).

Non-standard residues stand in square brackets, D forms with d. hArg = N=C(N)NCCCC[C@H](N)C(=O)O; Cit = NC(=O)NCCC[C@H](N)C(=O)O

In assay [1] the test system is murine E^k MHC class II allele. The assay can be described thus: simultaneous assay, E^k allele (CH27 APC, TPc9.1 T hybridoma, THMCC82-103 or PGCC81-104). Format: cell-based. The method, boiled down: (§1)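 Antigenic peptide, mitomycin C-treated APC, effector compound and allele-restricted T hybridoma cultured together for 24 h. Supernatant then transferred to interleukin-dependent HT-2 cells. T cell activation quantified as [3H]TdR uptake by HT-2 cells.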

Assay [2] has as its target T1, murine E^d MHC class II allele (Mus musculus, UniProt P01904+P01915).
T1 sequence (P01904 26-255): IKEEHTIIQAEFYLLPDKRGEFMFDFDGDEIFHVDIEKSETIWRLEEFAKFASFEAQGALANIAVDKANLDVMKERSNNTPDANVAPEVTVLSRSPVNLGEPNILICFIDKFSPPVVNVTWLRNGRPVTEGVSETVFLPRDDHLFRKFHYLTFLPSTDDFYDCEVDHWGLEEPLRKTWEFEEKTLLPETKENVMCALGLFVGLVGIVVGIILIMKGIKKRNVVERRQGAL
T1 sequence (P01915 27-264 limits assumed): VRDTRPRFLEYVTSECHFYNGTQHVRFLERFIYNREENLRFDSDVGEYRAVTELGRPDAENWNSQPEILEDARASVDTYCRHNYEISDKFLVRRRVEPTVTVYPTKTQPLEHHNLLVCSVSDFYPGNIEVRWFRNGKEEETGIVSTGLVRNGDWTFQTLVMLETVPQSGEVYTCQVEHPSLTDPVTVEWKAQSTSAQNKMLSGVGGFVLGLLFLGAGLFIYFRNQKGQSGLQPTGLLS
Briefly: simultaneous assay, E^d allele (A20 APC, G28.C9 T hybridoma, HEL106-116; HT-2 [3H]TdR readout). Format: cell-based. Details: The A20 and CH27 B cell lymphoma lines express H-2^d and H-2^k alleles, respectively; endogenous in cells; host or cells: A20 B cell lymphoma (mitomycin C-treated or paraformaldehyde-fixed). The procedure, abridged: as §1

Where [3] appears, read: Table 1, AE peptide 16 μM (second value), 0.075 μM THMCC82-103, supernatant 1:2.
[4] abbreviates: Table 1, AE peptide 64 μM (first value), 0.075 μM THMCC82-103, supernatant 1:2.
Setting [5] is: Table 7, AE peptide 64 μM, supernatant 1:4, normalized by a factor of 5.
The mark [6] stands for this setting: Table 9, AE peptide 64 μM, supernatant 1:4, normalized by a factor of 5.
[7] abbreviates: Table 11, AE peptide 64 μM, supernatant 1:4.
Where [8] appears, read: Table 13, AE peptide 1 μM (fourth value), supernatant 1:4.
Setting [9] is: Table 13, AE peptide 4 μM (third value), supernatant 1:4.
[10] abbreviates: Table 13, AE peptide 16 μM (second value), supernatant 1:4.
[11] abbreviates: Table 13, AE peptide 64 μM (first value), supernatant 1:4.
[12] abbreviates: Table 14, AE peptide 64 μM, supernatant 1:4.
[13] abbreviates: Table 15, AE peptide 16 μM, supernatant 1:4.
[14] abbreviates: Table 16, AE peptide 4 μM, supernatant 1:8.
Setting [15] is: Table 18, AE peptide 64 μM, supernatant 1:4.
[16] abbreviates: Table 1, AE peptide 16 μM (second value), 0.4 μM HEL106-116, supernatant 1:4.
The mark [17] stands for this setting: Table 1, AE peptide 64 μM (first value), 0.4 μM HEL106-116, supernatant 1:4.
The mark [18] stands for this setting: Table 7, AE peptide 64 μM, supernatant 1:4.
[19] abbreviates: Table 9, AE peptide 64 μM, supernatant 1:4.
The mark [20] stands for this setting: Table 11, AE peptide 64 μM, supernatant 1:8.
[21] abbreviates: Table 4, AE109 homolog 64 μM, supernatant 1:2.

For Ac-LRMKLPK-NH2 [AE114], the “Times Baseline Response, E^k” value in assay [1] (setting [3]) is 3.9; in assay [1] (setting [4]), 15.9; in assay [1] (Table 5, AE peptide 64 μM, supernatant 1:4, normalized to E^d by a factor of 10), 26.9; in assay [1] (Table 6, AE peptide 64 μM, supernatant 1:4, reduced by a factor of 5) it was 10.7; in assay [1] (setting [5]) it was 10.7; in assay [1] (setting [6]), 13.2. The “Times Baseline Response, E^k” value in assay [1] (setting [7]) was determined as 5.2; in assay [1] (Table 12, AE peptide 1 μM (fourth value), supernatant 1:4), 2.1; in assay [1] (Table 12, AE peptide 4 μM (third value), supernatant 1:4), 4.9; in assay [1] (Table 12, AE peptide 16 μM (second value), supernatant 1:4) it was 19.3; in assay [1] (Table 12, AE peptide 64 μM (first value), supernatant 1:4), 51.5; in assay [1] (setting [8]) it was 2.1. Moreover, the “Times Baseline Response, E^k” value in assay [1] (setting [9]) came to 4.9; in assay [1] (setting [10]), 19.3; in assay [1] (setting [11]) it was 51.5; in assay [1] (setting [12]), 40.3; in assay [1] (setting [13]), 18.2; in assay [1] (setting [14]) it was 1.2. The “Times Baseline Response, E^k” value in assay [1] (Table 17, AE peptide 64 μM, supernatant 1:4) was 2.8; in assay [1] (setting [15]), 40.3. Also, the “Times Baseline Response, Ek” value in assay [1] (Table 3, AE peptide 64 μM, supernatant 1:4, values reduced relative to E^d by a factor of 10) was determined as 26.9. For the same substance, the “Times Baseline Response, E^d” value came to 26.0 in assay [2] (setting [16]); 39.8 in assay [2] (setting [17]); 10.0 in assay [2] (Table 5, AE peptide 64 μM, supernatant 1:4); 10.6 in assay [2] (Table 6, AE peptide 64 μM, supernatant 1:4); 10.6 in assay [2] (setting [18]); 7.7 in assay [2] (setting [19]). Besides, the “Times Baseline Response, E^d” value in assay [2] (setting [20]) is given as 24.1; in assay [2] (Table 12, AE peptide 1 μM (fourth value), supernatant 1:2), 5; in assay [2] (Table 12, AE peptide 4 μM (third value), supernatant 1:2), 62; in assay [2] (Table 12, AE peptide 16 μM (second value), supernatant 1:2), 115; in assay [2] (Table 12, AE peptide 64 μM (first value), supernatant 1:2) it was 103; in assay [2] (setting [8]) it was 2. For the same substance, the “Times Baseline Response, E^d” value in assay [2] (setting [9]) is given as 18; in assay [2] (setting [10]) it was 65; in assay [2] (setting [11]) it was 48; in assay [2] (setting [12]) it was 12.4; in assay [2] (setting [13]), 228; in assay [2] (setting [14]), 15.7. The “Times Baseline Response, E^d” value in assay [2] (Table 17, AE peptide 4 μM, supernatant 1:4) came out at 47; in assay [2] (setting [15]), 12.4. Besides, the “Times Baseline Response, Ed” value in assay [2] (Table 3, AE peptide 64 μM, supernatant 1:4) is given as 10.0.
For YRMKLPKSAKPVSQMR [AE101], the “Times Baseline Response, E^k” value in assay [1] (setting [3]) worked out at 0.8; in assay [1] (setting [4]) it was 1.0. Moreover, the “Times Baseline Response, E^d” value in assay [2] (setting [16]) was determined as 4.9; in assay [2] (setting [17]), 13.6.
Regarding “Ac-LRMK HArg PK-NH2 (Ac-LRMK[hArg]PK-NH2; SMILES CSCC[C@H](NC(=O)[C@H](CCCNC(=N)N)NC(=O)[C@H](CC(C)C)NC(C)=O)C(=O)N[C@@H](CCCCN)C(=O)N[C@@H](CCCCNC(=N)N)C(=O)N1CCC[C@H]1C(=O)N[C@@H](CCCCN)C(N)=O) [AE227]”, the “Times Baseline Response, E^k” value in assay [1] (setting [5]) came to 20.5; in assay [1] (setting [13]), 45.6. Moreover, the “Times Baseline Response, E^d” value in assay [2] (setting [18]) is recorded as 8.1; in assay [2] (setting [13]), 32.3.
As for Ac-LRLK HArg PK-NH2 [AE341], the “Times Baseline Response, E^k” value in assay [1] (setting [13]) stood at 42.4. The “Times Baseline Response, E^d” value in assay [2] (setting [13]) stood at 38.9.
For Ac-L[Cit]NKLPK-NH2 [AE343], in that order: 2.9 and 1.2.
As for Ac-LRLKWPK-NH2 [AE309], the “Times Baseline Response, E^k” value stood at 48.2 in assay [1] (setting [12]), 38.0 in assay [1] (setting [13]) and 1.8 in assay [1] (setting [14]). The “Times Baseline Response, E^d” value in assay [2] (setting [12]) is reported as 12.1; in assay [2] (setting [13]), 13.1; in assay [2] (setting [14]), 20.0.
As to Ac-LRMKLP k-NH2 [AE166], the “Times Baseline Response, E^k” value is 3.4 in assay [1] (setting [7]) and 40.4 in assay [1] (setting [12]). Further, the “Times Baseline Response, E^d” value in assay [2] (setting [20]) is reported as 26.4; in assay [2] (setting [12]), 14.7.
Regarding Ac-L r MKLPK-NH2 [AE161], the “Times Baseline Response, E^k” value in assay [1] (setting [7]) was 1.1. Also, the “Times Baseline Response, E^d” value in assay [2] (setting [20]) is 4.0.
As to Ac-Y N MKLPKSAK-NH2 [AE137], the “Times Baseline Response, E^k” value in assay [1] (setting [21]) is reported as 0.7. The “Times Baseline Response, E^d” value in assay [2] (setting [21]) was 0.8.
For Ac-Y Y MKLPKSAK-NH2 [AE140], in that order: 0.9 and 0.7.
With “Ac-LRMKLP F-NH2 (Ac-LRMKLPF-NH2) [AE248]”, the “Times Baseline Response, E^k” value was found to be 16.3 in assay [1] (setting [6]) and 42.6 in assay [1] (setting [13]). Further, the entries for the “Times Baseline Response, E^d” value in assay [2] (setting [19]) and in assay [2] (setting [13]) were 17.2 and 34.7, respectively.
Ac-QLDSLRMKLPKSAK-NH2 [AE152]: the “Times Baseline Response, E^k” value in assay [1] (Table 2, AE peptide 64 μM, 0.05 μM PGCC81-104, supernatant 1:2) is 0.4. Besides, the “activity in simultaneous assay on E^k, in words” value in assay [1] (Tables 2 and 18) is reported as “inhibition”. Besides, the “Times Baseline Response, E^d” value in assay [2] (Table 2, AE peptide 64 μM, 0.05 μM HEL106-116, supernatant 1:2) is 2.3.
Turning to Ac-LRMKLPKPPP-NH2 [AE167], the “Times Baseline Response, E^k” value in assay [1] (setting [4]) is reported as 3.4, n.d. Also, the “Times Baseline Response, E^d” value in assay [2] (setting [17]) is recorded as 20.1, n.d.
Regarding Ac-YRM-NH2 [AE118], the “Times Baseline Response, E^k” value in assay [1] (setting [3]) is given as 3.0; in assay [1] (setting [4]), 5.6. Moreover, the figures for the “Times Baseline Response, E^d” value in assay [2] (setting [16]) and in assay [2] (setting [17]) were 0.6 and 1.0, respectively.
For the substance “Ac-LRMK N PK-NH2 (Ac-LRMKNPK-NH2) [AE232]”, the “Times Baseline Response, E^k” value in assay [1] (setting [5]) was 8.9; in assay [1] (setting [13]), 15.5. The entries for the “Times Baseline Response, E^d” value in assay [2] (setting [18]) and in assay [2] (setting [13]) were 12.5 and 24.3, respectively.
On to Ac-Y L MKLPKSAK-NH2 [AE142], for which the “Times Baseline Response, E^k” value in assay [1] (setting [21]) was 1.0. For the same substance, the “Times Baseline Response, E^d” value in assay [2] (setting [21]) was found to be 0.8.
